The NIST ThermoML archive (doi:10.1021/je060139a)

Assays:
[1] = xn = mol fraction of the nth substance listed; conditions: Wilhelmy plate method
[2] = refractive index (Na D-line) (dimensionless); xn = mol fraction of the nth substance listed; conditions: 100.5 kPa, Liquid, Standard Abbe refractometry

COC(=O)c1ccccc1 [methyl benzoate] + CCO
Conditions	refractive index, 288.15 K	refractive index, 298.18 K	refractive index, 308.15 K	refractive index, 318.15 K	surface tension liquid-gas, 288.15 K [mN/m]	surface tension liquid-gas, 298.18 K [mN/m]	surface tension liquid-gas, 308.15 K [mN/m]	surface tension liquid-gas, 318.15 K [mN/m]
[1], x1 = 0.05	–	–	–	–	23.8	23	22.1	21.2
[1], x1 = 0.1	–	–	–	–	24.63	23.78	22.87	21.9
[1], x1 = 0.15	–	–	–	–	25.4	24.51	23.57	22.6
[1], x1 = 0.2	–	–	–	–	26.18	25.25	24.28	23.3
[1], x1 = 0.25	–	–	–	–	26.92	25.96	24.94	23.95
[1], x1 = 0.3	–	–	–	–	27.67	26.66	25.59	24.6
[1], x1 = 0.35	–	–	–	–	28.37	27.3	26.2	25.2
[1], x1 = 0.4	–	–	–	–	29.04	27.9	26.8	25.8
[1], x1 = 0.45	–	–	–	–	29.69	28.55	27.4	26.4
[1], x1 = 0.5	–	–	–	–	30.33	29.16	28	27
[1], x1 = 0.55	–	–	–	–	30.97	29.79	28.6	27.6
[1], x1 = 0.6	–	–	–	–	31.62	30.41	29.2	28.2
[1], x1 = 0.65	–	–	–	–	32.29	31.05	29.8	28.8
[1], x1 = 0.7	–	–	–	–	33.01	31.75	30.5	29.46
[1], x1 = 0.75	–	–	–	–	33.78	32.5	31.2	30.16
[1], x1 = 0.8	–	–	–	–	34.6	33.3	32	30.92
[1], x1 = 0.85	–	–	–	–	35.6	34.2	32.8	31.76
[1], x1 = 0.9	–	–	–	–	36.6	35.2	33.8	32.7
[1], x1 = 0.95	–	–	–	–	37.6	36.2	34.8	33.8
[1], x1 = 1	–	–	–	–	38.6	37.2	35.8	34.8
[2], x1 = 0.05	1.38013	1.37591	1.37154	1.36738	–	–	–	–
[2], x1 = 0.1	1.39497	1.39068	1.38617	1.38191	–	–	–	–
[2], x1 = 0.15	1.40825	1.40383	1.39926	1.39488	–	–	–	–
[2], x1 = 0.2	1.41993	1.41549	1.41088	1.40643	–	–	–	–
[2], x1 = 0.25	1.43052	1.42606	1.42138	1.41686	–	–	–	–
[2], x1 = 0.3	1.44018	1.4357	1.43104	1.42643	–	–	–	–
[2], x1 = 0.35	1.44896	1.44448	1.4398	1.43518	–	–	–	–
[2], x1 = 0.4	1.45703	1.45255	1.44784	1.44318	–	–	–	–
[2], x1 = 0.45	1.4645	1.46	1.45528	1.45059	–	–	–	–
[2], x1 = 0.5	1.47142	1.46691	1.4622	1.45746	–	–	–	–
[2], x1 = 0.55	1.47785	1.47332	1.46859	1.46384	–	–	–	–
[2], x1 = 0.6	1.48384	1.4793	1.47455	1.46979	–	–	–	–
[2], x1 = 0.65	1.48938	1.48487	1.4801	1.47528	–	–	–	–
[2], x1 = 0.7	1.49451	1.49	1.4852	1.48039	–	–	–	–
[2], x1 = 0.75	1.49936	1.49482	1.49002	1.48515	–	–	–	–
[2], x1 = 0.8	1.50381	1.49926	1.49445	1.48961	–	–	–	–
[2], x1 = 0.85	1.50803	1.50347	1.49866	1.49378	–	–	–	–
[2], x1 = 0.9	1.512	1.50743	1.5026	1.49773	–	–	–	–
[2], x1 = 0.95	1.51569	1.51112	1.50631	1.50144	–	–	–	–
[2], x1 = 1	1.51915	1.51467	1.50993	1.50514	–	–	–	–
